26 molecules from patent US20130121994A1, “TRIAZOLOPYRIDINE DERIVATIVES” (BAYER INTELLECTUAL PROPERTY GMBH, priority 2009, published 2013) can be followed below.

SMILES strings stand for the structures.

In this test the target is T1, human kinase Mps-1 (Homo sapiens, UniProt P33981).
T1 construct: N-terminally GST-tagged human full length recombinant Mps-1 kinase; GST (N); purchased Invitrogen, Karslruhe, Germany PV4071
T1 sequence (P33981 1-857): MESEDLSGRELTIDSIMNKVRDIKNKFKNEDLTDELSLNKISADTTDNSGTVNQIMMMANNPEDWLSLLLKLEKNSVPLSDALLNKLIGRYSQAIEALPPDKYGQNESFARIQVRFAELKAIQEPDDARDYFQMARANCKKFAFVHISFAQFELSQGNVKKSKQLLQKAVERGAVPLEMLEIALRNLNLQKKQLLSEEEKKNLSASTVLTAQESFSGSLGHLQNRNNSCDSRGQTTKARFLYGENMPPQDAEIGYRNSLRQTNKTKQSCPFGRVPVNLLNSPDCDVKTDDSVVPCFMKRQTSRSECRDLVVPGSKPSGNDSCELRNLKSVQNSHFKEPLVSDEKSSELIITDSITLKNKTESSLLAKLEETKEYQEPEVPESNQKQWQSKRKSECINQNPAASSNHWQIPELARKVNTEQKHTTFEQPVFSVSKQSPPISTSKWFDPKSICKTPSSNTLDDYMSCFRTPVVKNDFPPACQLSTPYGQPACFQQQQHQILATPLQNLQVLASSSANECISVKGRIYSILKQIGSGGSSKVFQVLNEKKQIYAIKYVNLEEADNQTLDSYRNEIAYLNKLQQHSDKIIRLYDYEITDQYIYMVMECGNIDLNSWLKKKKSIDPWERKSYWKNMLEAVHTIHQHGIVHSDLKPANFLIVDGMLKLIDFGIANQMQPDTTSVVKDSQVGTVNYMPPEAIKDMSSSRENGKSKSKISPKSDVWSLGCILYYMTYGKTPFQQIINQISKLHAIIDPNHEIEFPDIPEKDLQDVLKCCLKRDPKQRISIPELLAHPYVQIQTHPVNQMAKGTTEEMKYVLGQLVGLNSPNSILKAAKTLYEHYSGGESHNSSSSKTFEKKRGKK
Put plainly: Mps-1 kinase assay (HTRF). The class given is biochemical. As to the method: The human kinase Mps-1 phosphorylates a biotinylated substrate peptide. Detection of the phosphorylated product is achieved by homogenous time-resolved fluorescence resonance energy transfer (HTRF) from Europium-labelled anti-phospho-Serine/Threonine antibody as donor to streptavidin labelled with cross-linked allophycocyanin (SA-XLent) as acceptor. Compounds are tested for their inhibition of the kinase activity.
N-terminally GST-tagged human full length recombinant Mps-1 kinase (purchased from Invitrogen, Karslruhe, Germany, cat. no PV4071) was used. As substrate for the kinase reaction a biotinylated peptide of the amino-acid sequence […] (C-terminus in amide form, purchased from Biosynthan GmbH, Berlin) was used.
The concentration of Mps-1 in the assay was adjusted to the activity of the enzyme lot and was chosen appropriate to have the assay in the linear range, typical enzyme concentrations were in the range of about 1 nM (final conc. in the 5 μl assay volume).
The resulting mixture was incubated 1 h at 22° C. to allow the binding of the phosphorylated peptide to the anti-phospho(Ser/Thr)-Europium-antibody. Subsequently the amount of phosphorylated substrate was evaluated by measurement of the resonance energy transfer from the Europium-labelled anti-phospho(Ser/Thr) antibody to the Streptavidin-XLent.
A general note: TR-FRET usually uses a lanthanide donor and a delayed reading to cut background.

As usually defined, the IC50 is the point on the concentration scale where inhibition reaches its midpoint. Higher therefore signals lower potency. `CNC(=O)c1ccc(Nc2nc3ccc(-c4cccc(C(=O)NCC(C)(C)C)c4)cn3n2)c(OC)c1` [Example 11.076, 4-[(6-{3-[(2,2-dimethylpropyl)carbamoyl]phenyl}[1,2,4]tria-zolo[1,5-a]pyridin-2-yl)amino]-3-methoxy-N-methylbenzamide]: the concentration for half-maximal inhibition (IC50) is at most 1 nM. Then `COc1cc(C(=O)NC(C)(C)CO)ccc1Nc1nc2ccc(-c3ccc(C(=O)NCCC(F)(F)F)cc3)cn2n1` [Example 11.023, N-(1-hydroxy-2-methylpropan-2-yl)-3-methoxy-4-[(6-{4-[(3,3,3-trifluoropropyl)carbamoyl]phenyl}[1,2,4]tria-zolo[1,5-a]pyridin-2-yl)amino]benzamide], with 5.22 nM; and `CC(C)(CO)NC(=O)c1cccc(-c2ccc3nc(Nc4ccccc4C#N)nn3c2)c1` [Example 11.046, 3-{2-[(2-cyanophenyl)amino][1,2,4]triazolo[1,5-a]pyridin-6-yl}-N-(1-hydroxy-2-methylpropan-2-yl)benzamide], with 3.29 nM. In the case of `COc1ccccc1Nc1nc2ccc(-c3ccc(N)cc3)cn2n1` [Example 5.2, 6-(4-aminophenyl)-N-(2-methoxyphenyl)[1,2,4]triazolo[1,5-a]pyridin-2-amine] it was 72 nM. Then `COC(C)(C)CNC(=O)c1cccc(-c2ccc3nc(Nc4ccccc4C#N)nn3c2)c1` [Example 11.060, 3-{2-[(2-cyanophenyl)amino][1,2,4]triazolo[1,5-a]pyridin-6-yl}-N-(2-methoxy-2-methylpropyl)benzamide], with 9.04 nM; and `CNC(=O)c1ccc(-c2ccc3nc(Nc4ccccc4C#N)nn3c2)cc1` [Example 3.10, 4-{2-[(2-cyanophenyl)amino] [1,2,4]triazolo[1,5-a]pyridin-6-yl}-N-methylbenzamide], with 24 nM. `CC(C)(C)CNC(=O)c1cc(F)cc(-c2ccc3nc(Nc4ccccc4C#N)nn3c2)c1` [Example 11.056, 3-{2-[(2-cyanophenyl)amino][1,2,4]triazolo[1,5-a]pyridin-6-yl}-N-(2,2-dimethylpropyl)-5-fluorobenzamide] yielded an IC50 of 9.21 nM. Then `CCOc1cc(C(=O)NC(C)(C)CO)ccc1Nc1nc2ccc(-c3ccc(C(=O)NCC(C)C)cc3)cn2n1` [Example 11.035, 3-ethoxy-N-(1-hydroxy-2-methylpropan-2-yl)-4-[(6-{4-[(2-methylpropyl)carbamoyl]phenyl}[1,2,4]triazolo [1,5-a]pyridin-2-yl)amino]benzamide], with 1.92 nM; and `CC(=O)Nc1cccc(-c2ccc3nc(Nc4ccc(C#N)cc4)nn3c2)c1` [Example 2.8, N-(3-{2-[(4-cyanophenyl)amino] [1,2,4]triazolo[1,5-a]pyridin-6-yl}phenyl)acetamide], with 1000 nM. The molecule `N#Cc1ccc(-c2ccc3nc(Nc4ccccc4C#N)nn3c2)cc1` [Example 3.20, 2-{[6-(4-cyanophenyl)[1,2,4]triazolo[1,5-a]pyridin-2-yl]amino}benzonitrile] registered an IC50 of 1500 nM. In the case of `CC(=O)Nc1cccc(-c2ccc3nc(Nc4ccc(S(C)(=O)=O)cc4)nn3c2)c1` [Example 2.5, N-[3-(2-{[4-(methylsulfonyl)phen-yl]amino}[1,2,4]triazolo [1,5-a]pyridin-6-yl)phenyl]acetamide] it was 770 nM; in that of `Cc1cc(-c2ccc3nc(Nc4cccnc4)nn3c2)cc(C)c1O` [Example 1.8, 2,6-dimethyl-4-[2-(pyridin-3-ylamino)[1,2,4]triazolo [1,5-a]pyridin-6-yl]phenol], 320 nM. In the case of `COc1ccccc1Nc1nc2ccc(-c3cccc(NC(=O)NC(C)C)c3)cn2n1` [Example 8.4, 1-(3-{2-[(2-methoxyphenyl)amino][1,2,4]triazolo[1,5-a]pyridin-6-yl}phenyl)-3-propan-2-ylurea] it was 92 nM; in that of `N#Cc1ccccc1Nc1nc2ccc(-c3ccc(C(=O)O)cc3)cn2n1` [Example 11.009, 4-{2-[(2-cyanophenyl)amino][1,2,4]triazolo[1,5-a]pyridin-6-yl}benzoic acid], 1550 nM. In the case of `COC(C)CNC(=O)c1cccc(-c2ccc3nc(Nc4ccccc4C#N)nn3c2)c1` (racemic) [Example 11.053, rac-3-{2-[(2-cyanophenyl)amino][1,2,4]triazolo[1,5-a]pyridin-6-yl}-N-(2-methoxypropyl)benzamide], the IC50 is 6.72 nM. In the case of `CCOc1cc(C(=O)NC(C)(C)CO)ccc1Nc1nc2ccc(-c3ccc(C(=O)NCC(F)(F)F)cc3)cn2n1` [Example 11.029, 3-ethoxy-N-(1-hydroxy-2-methylpropan-2-yl)-4-[(6-{4-[(2,2,2-trifluoroethyl)carbamoyl]phenyl}[1,2,4]triazolo [1,5-a]pyridin-2-yl)amino]benzamide] it was at most 1 nM; in that of `COc1cc(C(=O)NC(C)(C)CO)ccc1Nc1nc2ccc(-c3ccc(C(=O)NCC(F)(F)F)cc3)cn2n1` [Example 11.017, N-(1-hydroxy-2-methylpropan-2-yl)-3-methoxy-4-[(6-{4-[(2,2,2-trifluoroethyl)carbamoyl]phenyl}[1,2,4]triazolo [1,5-a]pyridin-2-yl)amino]benzamide], 1.73 nM. In the case of `N#Cc1ccccc1Nc1nc2ccc(-c3cccc(C(=O)NCCF)c3F)cn2n1` [Example 11.072, 3-{2-[(2-cyanophenyl)amino][1,2,4]triazolo[1,5-a]pyridin-6-yl}-2-fluoro-N-(2-fluoroethyl)benzamide] it was 42.2 nM; in that of `COc1cc(C(=O)NC(C)(C)C)ccc1Nc1nc2ccc(-c3ccc(C(=O)NCC(F)(F)F)cc3)cn2n1` [Example 11.005, N-tert-butyl-3-methoxy-4-[(6-{4-[(2,2,2-trifluoroethyl)carbamoyl]phenyl}[1,2,4]triazolo[1,5-a]pyridin-2-yl)amino]benzamide], 1.01 nM.

Molecule `CC(C)(C)CNC(=O)c1cccc(-c2ccc3nc(Nc4ccc(C(=O)NCC(C)(C)O)cc4OCC(F)(F)F)nn3c2)c1` [Example 11.095, 4-[(6-{3-[(2,2-dimethylpropyl)carbamoyl]phenyl}[1,2,4]tria-zolo[1,5-a]pyridin-2-yl)amino]-N-(2-hydroxy-2-methylpropyl)-3-(2,2,2-trifluoroethoxy)benzamide] gave an IC50 of at most 1 nM.

For `N#Cc1ccccc1Nc1nc2ccc(-c3cccc(CO)c3)cn2n1` [Example 3.2, 2-({6-[3-(hydroxymethyl)phen-yl][1,2,4]triazolo[1,5-a]pyridin-2-yl}amino)benzonitrile], the IC50 came to 52 nM. In turn, `CCOc1cc(C(=O)NCC(C)(C)O)ccc1Nc1nc2ccc(-c3ccc(C(=O)NCCC(F)(F)F)cc3)cn2n1` [Example 11.034, 3-ethoxy-N-(2-hydroxy-2-methylpropyl)-4-[(6-{4-[(3,3,3-trifluoropropyl)carbamoyl]phenyl}[1,2,4]tria-zolo[1,5-a]pyridin-2-yl)amino]benzamide] gave an IC50 of 1.38 nM. Then `N#Cc1ccccc1Nc1nc2ccc(-c3cccc(C(=O)NCCF)c3)cn2n1` [Example 11.054, 3-{2-[(2-cyanophenyl)amino][1,2,4]triazolo[1,5-a]pyridin-6-yl}-N-(2-fluoroethyl)benzamide], with 6.13 nM.

Molecule `CCOC(=O)c1cccc(-c2ccc3nc(Nc4ccccc4C#N)nn3c2)c1` [Example 9.1, ethyl 3-{2-[(2-cyanophenyl)amino][1,2,4]triazolo[1,5-a]pyridin-6-yl}benzoate] yielded an IC50 of 500 nM.

`CCOc1cc(C(=O)NCC(C)(C)O)ccc1Nc1nc2ccc(-c3ccc(C(=O)NCC(F)(F)F)cc3)cn2n1` [Example 11.032, 3-ethoxy-N-(2-hydroxy-2-methylpropyl)-4-[(6-{4-[(2,2,2-trifluoroethyl)carbamoyl]phenyl}[1,2,4]triazolo [1,5-a]pyridin-2-yl)amino]benzamide] came in with an IC50 of at most 1 nM.

`Cc1cc(O)ccc1-c1ccc2nc(Nc3ccccc3C#N)nn2c1` [Example 3.9, 2-{[6-(4-hydroxy-2-methylphenyl)[1,2,4]triazolo[1,5-a]pyridin-2-yl]amino}benzonitrile] gave a half-maximal inhibitory concentration (IC50) of 740 nM.
